# Patent US20220288052A1, “COMPOUND FOR COMBINATION TREATMENT” (priority 2019, published 2022)
# pIC50, pKi: −log10 of the molar value. Read-outs that look alike come from different tables or passages of the source.
# Columns and labels:
# [1] = Purity and stability study (solution, photo, oxidation, solid state); format: physicochemical
# Method: A purity and stability study was performed on exo-7-(8-aza-bicyclo[3.2.1]oct-3-yloxy)-chromen-2-one (compound (I)) hydrochloride anhydrate, showing that the compound is chemically and thermodynamically stable as solid and in solution, but sensitive to light when in solution.
# DA transporter = DA transporter (Rattus norvegicus, UniProt P23977); test: ^3H-uptake rat, DA transporter; format: biochemical
# Description: Compound (I) has been characterized as a monoamine reuptake inhibitor, based on the profile in a series of functional assays (Table 2).
# 5-HT transporter = molecular target: T1, 5-HT transporter (Mus musculus, UniProt Q60857); test: Ex vivo 5-HT uptake in mice
# T1 construct: from tissue; host or cells: tissue of dosed animals (ex vivo)
# Method: The in vivo receptor occupancy (RO %) of compound (I) was calculated at the MED values (DOSE) in mFST and in the mouse motility test using the formula RO % (estimated)=DOSE 100/(ED50+DOSE). The calculations were based on ED50 values in ex vivo uptake of 5-HT and NA and WIN in vivo binding.
# NMRI mice = test: Mouse marble burying test (mMB); format: in vivo
# Method: FIG. 13: Marble burying. In the marble-burying test mice exposed to a novel object (marbles) bury them in the sawdust floor covering. Compounds showing anxiolytic-like activity decrease the number of buried marbles at non-sedative doses. […] The number of marbles covered by sawdust was counted at the end of a 60-min session.
# (§1) Compound (I) was tested in three widely used behavioural screens for predicting anxiolytic effects in the clinic: the mouse marble burying test (mMB), mouse zero maze (mZM) and mouse stress-induced hyperthermia test (mSIH).
# mice = test: Mouse zero maze (mZM); format: in vivo; conditions: mZero maze, p.o.
# Method: Mice were treated (peroral administration) for 7 days with either, vehicle, duloxetine (10 mg/kg), and compound I (0.1 mg/kg, 1 mg/kg, and 3 mg/kg) (n=8 in each group).
# as §1
# [2] = Tissue distribution after single dose, mouse; format: in vivo; conditions: po; for AUC(0-t): female, NMRI, mouse 10 mg/kg p.o., read-out: AUC(0-24 h); for half-life: female NMRI mouse 10 mg/kg p.o., read-out: T½ (converted)
# Method: Compound (I) was dosed to female NMRI mice 10 mg/kg p.o. Plasma was taken 0.5, 1, 2, 4, 6 and 24 post dose. Brain, liver and lung were taken 1, 4 and 24 hours post dose.
# AUC and T½ were calculated for plasma and organs, even though the data are very sparse for the organs.
# [3] = Exposure and tissue distribution after 14 days repeat dosing, rat; format: in vivo; conditions: for concentration at 2 h / Kp at 2 h: rat, sc, 2 h post last dose
# Method: Single time point data is available from two 14 days repeat dose studies in mice and rats dosed to both sexes. The three low doses were performed together as one study and the top dose was performed at another occasion as a satellite study.
# Samples were taken 2 h post last dose.
# Plasma, brain and liver were taken 2 h post last dose.
# CYP 3A4 = CYP 3A4 (Homo sapiens, UniProt P08684); test: CYP450 inhibition, cocktail of selective substrates, 3A4; format: in vitro ADME; conditions: CYP 3A4, Midazolam to 1′-hydroxymidazolam; read-out: IC50 of compound (I)
# Method: Compound (I) was tested for CYP450 inhibition using a cocktail of selective substrates. […] This might be addressed later in a clinical study.
# [4] = 14-day repeat-dose study in Wistar rats; format: in vivo, rat
# Method: In a 14-day repeat-dose study 4 groups of 4 male and 4 female Wistar rats were treated daily with either compound (I) at doses of 5, 10 and 15 mg/kg s.c. (Groups 2, 3 and 4), or vehicle, 5% glucose s.c. (Group 1). A satellite group 25 mg/kg s.c. (group5) was conducted accordingly to increase the exposure and efficacy.
# hERG channels = hERG channels (Homo sapiens, UniProt Q12809); test: cell-based
# Method: A HEK293 cell line stably expressing Kv11.3 for hERG and KCNE1 (minK) was established. The effect of compound (I) on the amount of current carried by hERG channels was assessed in whole-cell patch clamp experiments. The channels were activated by a voltage protocol designed to simulate a human cardiac action potential.
# [5] = Cardiovascular safety in anaesthetised dogs
# Method: Data presented are mean±s.e. mean where n=4 for all time points, excluding D2t7 where n=3, D3t7 where n=2, and D4t7 and D4t26 where no data was available. Animals received 1, 3, 10, and 30 mg/kg compound (I) as 4 intravenous infusions (starting at t0, D1t30, D2t30 and D3t30, respectively). Each dose was administered over 5 min, using an infusion pump, and the dose volume for each treatment was 2 ml/kg, with the exception of the fourth dose which was 3 ml/kg.
# Data presented are mean±s.e. mean where n=4 for all time points, excluding D4t7 and D4t26 where no data was available. Animals received 1, 3, 10, and 30 mg/kg compound (I) as 4 intravenous infusions (starting at t0, D1t30, D2t30 and D3t30, respectively). Each dose was administered over 5 min, using an infusion pump, and the dose volume for each treatment was 2 ml/kg, with the exception of the fourth dose which was 3 ml/kg.
# [6] = 15 mg/kg s.c. 14 days (Group 4)
# [7] = 25 mg/kg s.c. 14 days (Group 5)
# T1 sequence (Q60857 whole entry): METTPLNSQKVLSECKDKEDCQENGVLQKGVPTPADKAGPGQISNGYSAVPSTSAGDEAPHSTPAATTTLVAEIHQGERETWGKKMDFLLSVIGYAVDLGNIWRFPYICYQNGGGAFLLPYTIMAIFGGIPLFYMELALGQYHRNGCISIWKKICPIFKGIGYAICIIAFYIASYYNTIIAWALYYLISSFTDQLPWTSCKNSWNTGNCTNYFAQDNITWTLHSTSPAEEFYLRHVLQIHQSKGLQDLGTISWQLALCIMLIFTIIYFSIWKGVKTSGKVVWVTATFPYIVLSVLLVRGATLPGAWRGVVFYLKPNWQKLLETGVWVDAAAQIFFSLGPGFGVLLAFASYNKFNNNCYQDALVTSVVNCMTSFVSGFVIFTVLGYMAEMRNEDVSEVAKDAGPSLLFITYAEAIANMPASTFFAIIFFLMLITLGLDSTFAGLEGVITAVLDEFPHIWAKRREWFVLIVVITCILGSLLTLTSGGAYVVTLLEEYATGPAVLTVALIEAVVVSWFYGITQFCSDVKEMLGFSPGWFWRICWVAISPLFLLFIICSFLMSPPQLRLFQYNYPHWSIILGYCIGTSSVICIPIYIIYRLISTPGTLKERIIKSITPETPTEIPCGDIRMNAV
# Chain of DA transporter (P23977 whole entry): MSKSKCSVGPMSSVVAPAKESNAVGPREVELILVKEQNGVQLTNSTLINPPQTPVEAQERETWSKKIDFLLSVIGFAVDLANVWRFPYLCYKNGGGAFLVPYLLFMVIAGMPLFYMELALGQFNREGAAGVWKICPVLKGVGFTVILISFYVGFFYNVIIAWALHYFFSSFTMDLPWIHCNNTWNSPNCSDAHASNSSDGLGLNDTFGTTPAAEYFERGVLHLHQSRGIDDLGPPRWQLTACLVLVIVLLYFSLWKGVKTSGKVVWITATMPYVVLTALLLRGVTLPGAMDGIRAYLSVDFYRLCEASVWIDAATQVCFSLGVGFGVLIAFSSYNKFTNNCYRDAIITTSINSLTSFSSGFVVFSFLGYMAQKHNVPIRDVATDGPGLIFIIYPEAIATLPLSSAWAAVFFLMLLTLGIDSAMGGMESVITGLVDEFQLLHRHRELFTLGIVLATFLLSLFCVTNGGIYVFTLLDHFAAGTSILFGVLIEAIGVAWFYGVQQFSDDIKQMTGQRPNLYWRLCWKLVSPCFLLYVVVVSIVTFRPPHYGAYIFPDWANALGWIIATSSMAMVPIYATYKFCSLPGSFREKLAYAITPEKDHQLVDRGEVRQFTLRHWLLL
# Chain of hERG channels (Q12809 whole entry): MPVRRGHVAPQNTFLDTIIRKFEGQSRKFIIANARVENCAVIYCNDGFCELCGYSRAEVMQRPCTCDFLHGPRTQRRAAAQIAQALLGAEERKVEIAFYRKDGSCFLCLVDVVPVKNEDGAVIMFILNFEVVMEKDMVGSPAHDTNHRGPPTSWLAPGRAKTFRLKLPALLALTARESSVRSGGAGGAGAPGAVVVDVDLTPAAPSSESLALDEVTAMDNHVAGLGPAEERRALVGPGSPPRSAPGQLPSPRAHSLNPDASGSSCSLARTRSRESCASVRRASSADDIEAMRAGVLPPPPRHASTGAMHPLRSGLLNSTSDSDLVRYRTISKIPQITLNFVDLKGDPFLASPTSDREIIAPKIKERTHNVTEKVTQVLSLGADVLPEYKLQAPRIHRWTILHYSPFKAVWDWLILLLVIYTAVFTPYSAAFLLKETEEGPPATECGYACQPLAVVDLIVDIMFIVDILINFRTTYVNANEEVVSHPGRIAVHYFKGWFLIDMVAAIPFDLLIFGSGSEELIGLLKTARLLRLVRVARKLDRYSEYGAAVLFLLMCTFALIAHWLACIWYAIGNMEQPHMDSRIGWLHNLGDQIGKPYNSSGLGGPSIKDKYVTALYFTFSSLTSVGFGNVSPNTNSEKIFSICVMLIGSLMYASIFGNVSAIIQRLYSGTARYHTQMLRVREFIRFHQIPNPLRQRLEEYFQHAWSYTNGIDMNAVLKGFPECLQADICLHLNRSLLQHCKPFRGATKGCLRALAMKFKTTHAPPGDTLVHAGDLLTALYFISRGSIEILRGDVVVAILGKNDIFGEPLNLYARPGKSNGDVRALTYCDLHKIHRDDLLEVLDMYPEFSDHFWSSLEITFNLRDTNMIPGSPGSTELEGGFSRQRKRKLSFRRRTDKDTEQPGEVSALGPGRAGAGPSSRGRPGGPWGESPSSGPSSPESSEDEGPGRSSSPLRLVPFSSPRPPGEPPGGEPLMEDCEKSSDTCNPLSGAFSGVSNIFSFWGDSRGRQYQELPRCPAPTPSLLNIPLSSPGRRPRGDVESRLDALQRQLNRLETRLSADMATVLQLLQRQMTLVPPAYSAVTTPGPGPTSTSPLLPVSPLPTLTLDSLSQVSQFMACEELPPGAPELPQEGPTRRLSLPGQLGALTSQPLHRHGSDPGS
# Chain of CYP 3A4 (P08684 whole entry): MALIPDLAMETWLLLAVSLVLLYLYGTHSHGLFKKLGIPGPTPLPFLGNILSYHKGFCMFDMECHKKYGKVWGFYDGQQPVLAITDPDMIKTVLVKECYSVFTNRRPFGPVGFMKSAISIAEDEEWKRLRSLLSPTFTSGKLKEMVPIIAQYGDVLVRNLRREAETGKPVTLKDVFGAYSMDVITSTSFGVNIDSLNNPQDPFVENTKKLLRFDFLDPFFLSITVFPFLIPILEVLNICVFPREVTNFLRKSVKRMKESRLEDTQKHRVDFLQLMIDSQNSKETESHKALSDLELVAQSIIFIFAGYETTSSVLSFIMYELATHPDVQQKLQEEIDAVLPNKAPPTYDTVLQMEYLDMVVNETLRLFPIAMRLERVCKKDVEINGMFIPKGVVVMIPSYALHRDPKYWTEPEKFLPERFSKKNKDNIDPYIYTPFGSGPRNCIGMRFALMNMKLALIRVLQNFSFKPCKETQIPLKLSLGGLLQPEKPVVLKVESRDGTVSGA
smiles,measurement,setting,value
"O=c1ccc2ccc(O[C@@H]3C[C@H]4CC[C@@H](C3)N4)cc2o1 [Compound (I), exo-7-(8-aza-bicyclo[3.2.1]oct-3-yloxy)-chromen-2-one]","Compound (I), % left after 1 d at 40° C.","[1]; Oxidation, 5% H2O2, 0.15 mM",83%
same,"Compound (I), % left after 3 h at 250 W/m^2",[1]; Photostability at pH 7.4,11%
same,% left after 26 d at 40° C. 75% rel. humidity in open container,[1]; Solid state stability,100%
same,"Compound (I), % left after 1 d at 40° C.","[1]; Stability at pH 1.0, 0.15 mM",100%
same,"Compound (I), % left after 1 d at 40° C.","[1]; Stability at pH 7.4, 0.15 mM",100%
same,pIC50,DA transporter,6.59
same,5-HT RO %,"5-HT transporter; estimated at MED in mFST (NMRI mice), DOSE 1 mg/kg",34%
same,5-HT RO %,"5-HT transporter; estimated at MED in mMotility, DOSE 10 mg/kg",84%
same,ED50,"5-HT transporter; mouse, po",1.9 mg/kg
same,MED,"NMRI mice; Marble burying, p.o., −60 min",0.1 mg/kg
same,Number of visible marbles,"NMRI mice; per oral, NMRI mice, 60-min session",dose-dependently (0.1-1.0 mg/kg) increases in the number of visible marbles
same,MED,"mice; acute, −60 min",>10 mg/kg
same,MED,mice; 7 days OD,<0.3 mg/kg
same,AUC(0-t),[2]; Brain,9350 ng·h/mL
same,AUC(0-t),[2]; Liver,38500 ng·h/mL
same,AUC(0-t),[2]; Lung,35700 ng·h/mL
same,AUC(0-t),[2]; Plasma,2220 ng·h/mL
same,half-life,[2]; Brain,3 h
same,half-life,[2]; Liver,2.5 h
same,half-life,[2]; Lung,2.2 h
same,half-life,[2]; Plasma,1.1 h
same,concentration at 2 h,"[3]; Wistar, brain, Female rats, 5 mg/kg s.c. 14 days, read-out: Brain concentration",468 ng/g
same,concentration at 2 h,"[3]; Wistar, brain, Female rats, 10 mg/kg s.c. 14 days, read-out: Brain concentration",1020 ng/g
same,concentration at 2 h,"[3]; Wistar, brain, Female rats, 15 mg/kg s.c. 14 days, read-out: Brain concentration",1580 ng/g
same,concentration at 2 h,"[3]; Wistar, brain, Female rats, 25 mg/kg s.c. 14 days, read-out: Brain concentration",2080 ng/g
same,concentration at 2 h,"[3]; Wistar, brain, Male rats, 5 mg/kg s.c. 14 days, read-out: Brain concentration",519 ng/g
same,concentration at 2 h,"[3]; Wistar, brain, Male rats, 10 mg/kg s.c. 14 days, read-out: Brain concentration",1380 ng/g
same,concentration at 2 h,"[3]; Wistar, brain, Male rats, 15 mg/kg s.c. 14 days, read-out: Brain concentration",1950 ng/g
same,concentration at 2 h,"[3]; Wistar, brain, Male rats, 25 mg/kg s.c. 14 days, read-out: Brain concentration",2580 ng/g
same,Kp at 2 h,"[3]; Wistar, brain/plasma, Female rats, 5 mg/kg s.c. 14 days, read-out: Brain/plasma ratio",7
same,Kp at 2 h,"[3]; Wistar, brain/plasma, Female rats, 10 mg/kg s.c. 14 days, read-out: Brain/plasma ratio",7
same,Kp at 2 h,"[3]; Wistar, brain/plasma, Female rats, 15 mg/kg s.c. 14 days, read-out: Brain/plasma ratio",6
same,Kp at 2 h,"[3]; Wistar, brain/plasma, Male rats, 5 mg/kg s.c. 14 days, read-out: Brain/plasma ratio",7
same,Kp at 2 h,"[3]; Wistar, brain/plasma, Male rats, 10 mg/kg s.c. 14 days, read-out: Brain/plasma ratio",6
same,Kp at 2 h,"[3]; Wistar, brain/plasma, Male rats, 15 mg/kg s.c. 14 days, read-out: Brain/plasma ratio",5
same,Kp at 2 h,"[3]; Wistar, in vivo, Female rats, 5 mg/kg s.c. 14 days, read-out: Liver/plasma ratio",5
same,Kp at 2 h,"[3]; Wistar, in vivo, Female rats, 10 mg/kg s.c. 14 days, read-out: Liver/plasma ratio",5
same,Kp at 2 h,"[3]; Wistar, in vivo, Female rats, 15 mg/kg s.c. 14 days, read-out: Liver/plasma ratio",5
same,Kp at 2 h,"[3]; Wistar, in vivo, Male rats, 5 mg/kg s.c. 14 days, read-out: Liver/plasma ratio",3
same,Kp at 2 h,"[3]; Wistar, in vivo, Male rats, 10 mg/kg s.c. 14 days, read-out: Liver/plasma ratio",3
same,Kp at 2 h,"[3]; Wistar, in vivo, Male rats, 15 mg/kg s.c. 14 days, read-out: Liver/plasma ratio",2
same,concentration at 2 h,"[3]; Wistar, liver, Female rats, 5 mg/kg s.c. 14 days, read-out: Liver concentration",319 ng/g
same,concentration at 2 h,"[3]; Wistar, liver, Female rats, 10 mg/kg s.c. 14 days, read-out: Liver concentration",738 ng/g
same,concentration at 2 h,"[3]; Wistar, liver, Female rats, 15 mg/kg s.c. 14 days, read-out: Liver concentration",1520 ng/g
same,concentration at 2 h,"[3]; Wistar, liver, Male rats, 5 mg/kg s.c. 14 days, read-out: Liver concentration",259 ng/g
same,concentration at 2 h,"[3]; Wistar, liver, Male rats, 10 mg/kg s.c. 14 days, read-out: Liver concentration",737 ng/g
same,concentration at 2 h,"[3]; Wistar, liver, Male rats, 15 mg/kg s.c. 14 days, read-out: Liver concentration",921 ng/g
same,concentration at 2 h,"[3]; Wistar, plasma, Female rats, 5 mg/kg s.c. 14 days, read-out: Plasma concentration",67 ng/mL
same,concentration at 2 h,"[3]; Wistar, plasma, Female rats, 10 mg/kg s.c. 14 days, read-out: Plasma concentration",149 ng/mL
same,concentration at 2 h,"[3]; Wistar, plasma, Female rats, 15 mg/kg s.c. 14 days, read-out: Plasma concentration",281 ng/mL
same,concentration at 2 h,"[3]; Wistar, plasma, Male rats, 5 mg/kg s.c. 14 days, read-out: Plasma concentration",77 ng/mL
same,concentration at 2 h,"[3]; Wistar, plasma, Male rats, 10 mg/kg s.c. 14 days, read-out: Plasma concentration",242 ng/mL
same,concentration at 2 h,"[3]; Wistar, plasma, Male rats, 15 mg/kg s.c. 14 days, read-out: Plasma concentration",398 ng/mL
same,Kp at 2 h,"[3]; brain/plasma, Female rats, 25 mg/kg s.c. 14 days, read-out: Brain/plasma ratio",5
same,Kp at 2 h,"[3]; brain/plasma, Male rats, 25 mg/kg s.c. 14 days, read-out: Brain/plasma ratio",5
same,Kp at 2 h,"[3]; in vivo, Female rats, 25 mg/kg s.c. 14 days, read-out: Liver/plasma ratio",6
same,Kp at 2 h,"[3]; in vivo, Male rats, 25 mg/kg s.c. 14 days, read-out: Liver/plasma ratio",3
same,concentration at 2 h,"[3]; liver, Female rats, 25 mg/kg s.c. 14 days, read-out: Liver concentration",2310 ng/g
same,concentration at 2 h,"[3]; liver, Male rats, 25 mg/kg s.c. 14 days, read-out: Liver concentration",1560 ng/g
same,concentration at 2 h,"[3]; plasma, Female rats, 25 mg/kg s.c. 14 days, read-out: Plasma concentration",412 ng/mL
same,concentration at 2 h,"[3]; plasma, Male rats, 25 mg/kg s.c. 14 days, read-out: Plasma concentration",512 ng/mL
same,Linearity of kinetics after repeat dosing,"[3]; rats, 5-25 mg/kg s.c. 14 days, 5% glucose",slight tendency to supra-linear kinetics
same,pIC50,CYP 3A4,< 4.00
same,Activity,[4]; [6],increased activity in both males and females
same,Body weight gain,[4]; [6],"No changes in body weight gain were observed in the female rats, but a tendency to increased bodyweight in the group 4 males"
same,Relative liver weights,[4]; [6],reduced in group 4 females and increased in group 4 males
same,Activity,[4]; [7],increased activity in both male and female
same,Body weight,[4]; [7],minimal decreased body weight
same,Liver weight,[4]; [7],No changes in liver weight
same,Macroscopic findings at termination,[4]; s.c. 14 days,no treatment-related macroscopic findings
same,pKi,hERG channels,< 5.00
same,Heart rate,"[5]; 1, 3, 10 and 30 mg/kg i.v.",Dose-dependent increases
same,RR interval,"[5]; 1, 3, 10 and 30 mg/kg i.v.",dose-dependent decreases
same,"Arterial blood pressure (mean, systolic and diastolic)","[5]; 1, 3, 10 and 30 mg/kg i.v., apparent decrease following 10 and 30 mg/kg",No consistent changes
same,PR interval and QRS duration,"[5]; 1, 3, 10 and 30 mg/kg i.v., potential PR shortening at 30 mg/kg",relatively unaffected
same,concentration at 5 min,"[5]; beagle, dog, plasma, intravenous",6500 to 15000 ng/mL
same,QTcF and QTcV intervals,"[5]; corrected for heart rate/RR interval, also when paced at 90 or 110 bpm",clear dose-dependent increase
